Measured values published in ChEMBL document CHEMBL5465560, “Selectivity Literature for EUbOPEN Chemogenomic Library” (2024).
Values belong to the compound of their own block, whether it stands above or below them.

Legend:
[1] = target: Serine/threonine-protein kinase N2 (Homo sapiens, UniProt Q16513); assay: Selectivity interaction (KinomeScan (DiscoverX)) EUB0000655a PKN2; conditions: at 10 µM
[2] = target: T1, Mitogen-activated protein kinase kinase kinase 15 (Homo sapiens) (UniProt Q6ZN16); assay: Selectivity interaction (KinomeScan (DiscoverX)) EUB0000618a MAP3K15; conditions: at 10 µM
T1 sequence (whole entry): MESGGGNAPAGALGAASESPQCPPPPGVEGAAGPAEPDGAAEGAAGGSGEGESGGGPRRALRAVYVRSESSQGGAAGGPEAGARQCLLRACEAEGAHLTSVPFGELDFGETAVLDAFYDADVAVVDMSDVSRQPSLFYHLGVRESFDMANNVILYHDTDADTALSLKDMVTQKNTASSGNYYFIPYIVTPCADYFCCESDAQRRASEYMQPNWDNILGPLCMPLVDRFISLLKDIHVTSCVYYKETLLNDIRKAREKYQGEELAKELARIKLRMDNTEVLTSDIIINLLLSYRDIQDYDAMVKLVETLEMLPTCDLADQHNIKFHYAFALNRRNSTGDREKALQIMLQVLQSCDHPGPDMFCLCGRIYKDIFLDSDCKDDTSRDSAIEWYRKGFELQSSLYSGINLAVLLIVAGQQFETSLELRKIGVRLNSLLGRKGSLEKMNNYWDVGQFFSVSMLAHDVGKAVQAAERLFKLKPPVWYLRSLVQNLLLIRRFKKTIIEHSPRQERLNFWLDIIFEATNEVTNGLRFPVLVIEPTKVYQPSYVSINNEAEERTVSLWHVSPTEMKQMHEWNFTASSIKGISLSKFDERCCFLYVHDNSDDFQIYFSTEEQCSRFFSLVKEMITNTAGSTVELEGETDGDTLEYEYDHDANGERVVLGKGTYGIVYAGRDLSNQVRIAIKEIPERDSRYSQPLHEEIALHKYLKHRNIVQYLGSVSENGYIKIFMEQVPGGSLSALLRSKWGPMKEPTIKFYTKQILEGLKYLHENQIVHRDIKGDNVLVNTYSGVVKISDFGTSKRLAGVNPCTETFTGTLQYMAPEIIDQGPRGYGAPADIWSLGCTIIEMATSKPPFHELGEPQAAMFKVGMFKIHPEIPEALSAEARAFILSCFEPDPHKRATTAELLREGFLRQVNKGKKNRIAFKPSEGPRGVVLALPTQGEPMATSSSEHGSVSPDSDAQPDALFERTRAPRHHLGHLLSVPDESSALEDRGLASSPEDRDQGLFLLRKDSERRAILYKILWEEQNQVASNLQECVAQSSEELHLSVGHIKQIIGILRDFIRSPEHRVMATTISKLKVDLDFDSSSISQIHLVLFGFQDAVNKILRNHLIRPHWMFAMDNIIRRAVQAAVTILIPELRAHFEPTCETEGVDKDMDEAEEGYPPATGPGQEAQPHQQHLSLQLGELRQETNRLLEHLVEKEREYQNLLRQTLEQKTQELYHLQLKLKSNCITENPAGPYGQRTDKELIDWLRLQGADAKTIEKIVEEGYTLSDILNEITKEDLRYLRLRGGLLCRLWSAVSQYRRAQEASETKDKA

[3] = target: T2, Serine/threonine-protein kinase Nek2 (Homo sapiens) (UniProt P51955); assay: Selectivity interaction (KinomeScan (DiscoverX)) EUB0000607a NEK2; conditions: at 10 µM
T2 sequence (whole entry): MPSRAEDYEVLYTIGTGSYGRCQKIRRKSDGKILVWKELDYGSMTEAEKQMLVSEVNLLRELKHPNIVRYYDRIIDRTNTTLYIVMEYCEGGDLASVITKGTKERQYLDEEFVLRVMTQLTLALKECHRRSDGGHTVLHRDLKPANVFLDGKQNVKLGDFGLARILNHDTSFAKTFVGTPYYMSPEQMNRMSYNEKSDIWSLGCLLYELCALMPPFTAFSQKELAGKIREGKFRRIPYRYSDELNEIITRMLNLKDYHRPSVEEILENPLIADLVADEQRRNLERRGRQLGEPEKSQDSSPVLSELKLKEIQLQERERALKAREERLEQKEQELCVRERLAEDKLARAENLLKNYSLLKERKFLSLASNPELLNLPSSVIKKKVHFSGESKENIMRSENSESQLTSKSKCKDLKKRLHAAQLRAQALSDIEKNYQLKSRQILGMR

[4] = target: Cyclin-dependent kinase 5 (Homo sapiens, UniProt Q00535); assay: Selectivity interaction (ActivX KiNativ screen (kinase selectivity in THP-1 cell lysates)) EUB0000639a CDK5; type: subcellular; conditions: lysate, at 1 µM
Chain of Cyclin-dependent kinase 5 (Q00535 whole entry, looked up): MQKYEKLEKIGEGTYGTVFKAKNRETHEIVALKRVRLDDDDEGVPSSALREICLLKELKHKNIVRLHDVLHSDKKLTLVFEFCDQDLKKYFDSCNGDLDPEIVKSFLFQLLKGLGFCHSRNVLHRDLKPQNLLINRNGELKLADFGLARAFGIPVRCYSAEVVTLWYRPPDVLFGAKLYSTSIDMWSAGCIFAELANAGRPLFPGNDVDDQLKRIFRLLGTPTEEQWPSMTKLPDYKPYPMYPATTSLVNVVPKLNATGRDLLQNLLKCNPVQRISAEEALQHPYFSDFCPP

[5] = target: T3, Cyclin-dependent kinase 11A (Homo sapiens) (UniProt Q9UQ88); assay: Selectivity interaction (KinomeScan (DiscoverX)) EUB0000666a CDK11A; conditions: at 10 µM
T3 sequence (whole entry): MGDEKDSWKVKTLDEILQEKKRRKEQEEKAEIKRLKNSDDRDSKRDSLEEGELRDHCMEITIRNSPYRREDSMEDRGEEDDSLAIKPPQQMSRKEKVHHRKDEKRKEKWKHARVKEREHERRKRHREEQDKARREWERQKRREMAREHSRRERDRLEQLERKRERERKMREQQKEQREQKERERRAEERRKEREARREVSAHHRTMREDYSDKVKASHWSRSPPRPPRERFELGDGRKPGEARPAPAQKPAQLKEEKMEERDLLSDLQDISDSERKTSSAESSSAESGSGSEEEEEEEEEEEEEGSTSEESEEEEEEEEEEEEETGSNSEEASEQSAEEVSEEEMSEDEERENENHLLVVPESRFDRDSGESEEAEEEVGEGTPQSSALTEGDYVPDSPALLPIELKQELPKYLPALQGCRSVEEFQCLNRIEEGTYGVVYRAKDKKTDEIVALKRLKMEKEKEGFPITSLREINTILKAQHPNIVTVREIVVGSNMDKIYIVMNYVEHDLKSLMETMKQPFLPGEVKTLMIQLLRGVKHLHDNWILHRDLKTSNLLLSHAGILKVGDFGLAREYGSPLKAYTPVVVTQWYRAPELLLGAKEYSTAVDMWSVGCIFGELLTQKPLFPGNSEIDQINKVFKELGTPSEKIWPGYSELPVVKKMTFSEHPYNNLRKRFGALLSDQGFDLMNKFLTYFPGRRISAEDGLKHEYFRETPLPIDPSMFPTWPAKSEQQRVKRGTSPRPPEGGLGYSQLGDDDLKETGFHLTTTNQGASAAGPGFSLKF

Chain of Serine/threonine-protein kinase N2 (Q16513 whole entry, looked up): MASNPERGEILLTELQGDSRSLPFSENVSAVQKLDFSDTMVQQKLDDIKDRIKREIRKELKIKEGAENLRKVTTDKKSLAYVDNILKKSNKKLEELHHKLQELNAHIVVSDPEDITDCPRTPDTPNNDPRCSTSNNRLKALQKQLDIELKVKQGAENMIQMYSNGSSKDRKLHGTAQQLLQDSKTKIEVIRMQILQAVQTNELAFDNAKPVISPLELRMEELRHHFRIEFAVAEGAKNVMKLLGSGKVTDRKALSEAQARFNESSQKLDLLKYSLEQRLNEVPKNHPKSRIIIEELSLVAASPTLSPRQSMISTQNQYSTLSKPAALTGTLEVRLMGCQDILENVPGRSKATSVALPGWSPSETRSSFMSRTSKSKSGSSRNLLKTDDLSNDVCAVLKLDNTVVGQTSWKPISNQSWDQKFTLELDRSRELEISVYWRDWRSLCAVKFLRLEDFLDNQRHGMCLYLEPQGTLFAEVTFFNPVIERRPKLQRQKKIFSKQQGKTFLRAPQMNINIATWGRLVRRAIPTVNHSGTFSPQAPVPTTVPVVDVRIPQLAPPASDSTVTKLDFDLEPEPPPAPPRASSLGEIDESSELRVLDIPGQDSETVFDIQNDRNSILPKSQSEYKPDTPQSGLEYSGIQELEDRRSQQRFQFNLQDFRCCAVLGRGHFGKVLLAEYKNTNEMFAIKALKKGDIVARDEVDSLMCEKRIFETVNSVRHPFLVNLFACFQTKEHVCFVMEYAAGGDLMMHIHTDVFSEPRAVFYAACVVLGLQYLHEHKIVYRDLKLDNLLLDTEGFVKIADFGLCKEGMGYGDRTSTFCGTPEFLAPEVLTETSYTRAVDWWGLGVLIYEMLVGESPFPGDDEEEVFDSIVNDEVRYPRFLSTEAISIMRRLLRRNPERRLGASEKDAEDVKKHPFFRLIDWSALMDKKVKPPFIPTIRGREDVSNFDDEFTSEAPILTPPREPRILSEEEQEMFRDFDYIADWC

SMILES: CN(C)CCOc1ccc(-c2nc(-c3ccncc3)c(-c3ccc4c(c3)CC/C4=N\O)[nH]2)cc1
% of control [1]: 100%

SMILES: O[C@H]1CC[C@H](Nc2ncc3nc(Nc4c(F)cc(F)cc4F)n([C@H]4CCOC4)c3n2)CC1
% of control [2]: 100%

SMILES: CNC(=O)Nc1ccc(-c2nc(N3CC4CCC(C3)O4)c3cnn(C4CCC5(CC4)OCCO5)c3n2)cc1
% of control [3]: 72%

% of inhibition [4]: -3.5%
SMILES: CC[C@@H]1[C@H](F)C(=O)N[C@@H]1COc1nccc2cc(C(N)=O)c(OC)cc12 [ZIMLOVISERTIB]

SMILES: O=C(NOC[C@H](O)CO)c1ccc(F)c(F)c1Nc1ccc(I)cc1F
% of control [5]: 100%
